The CheMixHub ionic liquid set
± gives the uncertainty stated by the source.

Assay: xn = mol fraction of the nth substance listed

CC(C)C[P+](C)(CC(C)C)CC(C)C.Cc1ccc(S(=O)(=O)[O-])cc1 + O=S1(=O)CCCC1
101.33 kPa, x1 = 0.5
Conditions	viscosity [mPa·s]
303.18 K	216 ± 52
313.18 K	122 ± 26
323.15 K	69 ± 14
333.13 K	44.4 ± 9
343.09 K	27.4 ± 5.5
353.11 K	18.5 ± 3.7

CCO + CC[n+]1ccccc1.N#C[N-]C#N
Conditions	viscosity [mPa·s]
288.15 K, 100 kPa, x1 = 1	1.29 ± 0.13

CC[n+]1ccn(C)c1.O=C([O-])[C@@H]1CCCN1 + CC[n+]1ccn(C)c1.N#C[C-](C#N)C#N
Conditions	viscosity [mPa·s]
298.15 K, 101 kPa, x2 = 0	1195 ± 130

CCCC[N+](CCCC)(CCCC)Cc1ccccc1.[Cl-] + CC(C)[C@H](N)C(=O)O + O
101 kPa
Conditions	electrical conductivity, 298.15 K [S/m]	electrical conductivity, 303.15 K [S/m]	electrical conductivity, 308.15 K [S/m]	viscosity, 298.15 K [mPa·s]	viscosity, 303.15 K [mPa·s]	viscosity, 308.15 K [mPa·s]
x2 = 1.802e-05, x1 = 1.802e-05	0.0145 ± 0.0015	0.0163 ± 0.0016	0.0169 ± 0.0017	–	0.825 ± 0.032	0.704 ± 0.032
x2 = 1.804e-05, x1 = 5.406e-05	0.0303 ± 0.003	0.0313 ± 0.0031	0.0331 ± 0.0033	–	–	–
x2 = 1.805e-05, x1 = 9.009e-05	0.0341 ± 0.0034	0.0371 ± 0.0037	0.0391 ± 0.0039	–	–	–
x2 = 4.506e-05, x1 = 1.802e-05	0.0166 ± 0.0017	0.0172 ± 0.0017	0.0185 ± 0.0019	–	0.838 ± 0.032	0.719 ± 0.032
x2 = 4.509e-05, x1 = 5.405e-05	0.0312 ± 0.0031	0.0322 ± 0.0032	0.0342 ± 0.0034	–	–	–
x2 = 4.511e-05, x1 = 9.009e-05	0.0353 ± 0.0035	0.0383 ± 0.0038	0.0406 ± 0.0041	1.296 ± 0.035	–	–
x2 = 7.21e-05, x1 = 1.802e-05	0.0185 ± 0.0019	0.0193 ± 0.0019	0.0209 ± 0.0021	–	0.851 ± 0.032	0.733 ± 0.032
x2 = 7.214e-05, x1 = 5.405e-05	0.0325 ± 0.0033	0.0335 ± 0.0034	0.0356 ± 0.0036	1.273 ± 0.035	–	–
x2 = 7.218e-05, x1 = 9.009e-05	0.0365 ± 0.0037	0.0394 ± 0.0039	0.0421 ± 0.0042	–	–	–
x2 = 9.913e-05, x1 = 1.802e-05	0.0205 ± 0.0021	0.0215 ± 0.0022	0.0234 ± 0.0023	–	0.864 ± 0.032	0.748 ± 0.032
x2 = 9.919e-05, x1 = 5.405e-05	0.0338 ± 0.0034	0.0346 ± 0.0035	0.0363 ± 0.0036	1.288 ± 0.035	–	–
x2 = 9.925e-05, x1 = 9.008e-05	0.0379 ± 0.0038	0.0409 ± 0.0041	0.0435 ± 0.0044	–	1.165 ± 0.034	–
x2 = 0.0001262, x1 = 1.802e-05	0.0222 ± 0.0022	0.0236 ± 0.0024	0.0249 ± 0.0025	–	0.878 ± 0.032	0.763 ± 0.032
x2 = 0.0001262, x1 = 5.405e-05	0.0347 ± 0.0035	0.0357 ± 0.0036	0.0377 ± 0.0038	–	–	–
x2 = 0.0001263, x1 = 9.008e-05	0.0391 ± 0.0039	0.0421 ± 0.0042	0.0447 ± 0.0045	–	–	–
x2 = 0.0001532, x1 = 1.802e-05	0.0235 ± 0.0024	0.0251 ± 0.0025	0.0266 ± 0.0027	–	–	0.779 ± 0.032
x2 = 0.0001533, x1 = 5.405e-05	0.0356 ± 0.0036	0.0368 ± 0.0037	0.0389 ± 0.0039	–	–	–
x2 = 0.0001534, x1 = 9.008e-05	0.0407 ± 0.0041	0.0435 ± 0.0044	0.0463 ± 0.0046	–	–	–

CCCCn1cc[n+](CCOCCOCCOCC[n+]2ccn(CCCC)c2)c1.N#C[N-]C#N.N#C[N-]C#N + CC[n+]1ccn(C)c1.N#C[N-]C#N + O=S(=O)([N-]S(=O)(=O)C(F)(F)F)C(F)(F)F.[Li+]
100 kPa, x1 = 0.2237, x2 = 0.6826
Conditions	electrical conductivity [S/m]
298 K	0.491 ± 0.02
303 K	0.589 ± 0.024
313 K	0.812 ± 0.032
323 K	1.1 ± 0.044
333 K	1.42 ± 0.057
343 K	1.79 ± 0.071

CCC(=O)OC + O=S(=O)([N-]S(=O)(=O)C(F)(F)F)C(F)(F)F.[Li+] + COC(=O)OC
298.15 K, 100 kPa
Conditions	viscosity [mPa·s]
x2 = 0.333, x3 = 0	21.6 ± 0.5
x2 = 0.333, x3 = 0.3335	38.6 ± 1.1

CCO + COP(=O)([O-])OC.C[N+]1(CCO)CCCC1
Conditions	viscosity [mPa·s]
298.15 K, 100 kPa, x2 = 0	1.08 ± 0.07
